Several values for one entry are separate records, joined by “and”; a condition that tells them apart may be missing. Identical values can stand only once.
Details: Liquid

CCCCCCCCCCC(=O)OC [methyl undecanoate]
Details	vapor or sublimation pressure [kPa]
305.25 K	0.003577
307.81 K	0.004504
310.15 K	0.005571
312.67 K	0.006957
315.06 K	0.008553
317.52 K	0.01055
319.94 K	0.01283
322.42 K	0.01574
324.82 K	0.019
327.29 K	0.02304
329.69 K	0.02778
332.16 K	0.03345
334.54 K	0.03987
337.03 K	0.04783
339.43 K	0.05689
341.91 K	0.06735

CCCCCCCCCCCC(=O)OC [methyl dodecanoate]
Transpiration method
Details	vapor or sublimation pressure [kPa]
323.8 K	0.00609
325.9 K	0.00701
327.9 K	0.00853
329.9 K	0.00982
331.8 K	0.0113
333.9 K	0.0134
335.7 K	0.0164
338.7 K	0.0198
340.7 K	0.0228
344.1 K	0.0291
345.9 K	0.0331
349.3 K	0.0413
351.3 K	0.047
354.4 K	0.0603
356.4 K	0.0682
359.6 K	0.0828
361.5 K	0.0952
364.7 K	0.11
366.7 K	0.132
370 K	0.16
371.8 K	0.178
374.7 K	0.214
378.6 K	0.263
381.7 K	0.314
386.8 K	0.412
389.6 K	0.491
391.9 K	0.534
394.9 K	0.635
397 K	0.694
399.2 K	0.774
401.3 K	0.898

CCCCCCCCCCCCCCCC(=O)OC [methyl hexadecanoate]
Details	vapor or sublimation pressure
308.12 K	2.814e-05 kPa
312 K	4.574e-05 kPa
312.96 K	5.318e-05 kPa
312.97 K	4.817e-05 kPa
314.42 K	5.995e-05 kPa
315.4 K	6.903e-05 kPa
316.85 K	7.591e-05 kPa
317.81 K	8.232e-05 kPa
317.82 K	8.757e-05 kPa
319.27 K	0.0001 kPa
320.26 K	0.0001123 kPa
321.71 K	0.0001276 kPa
322.66 K	0.0001426 kPa
322.67 K	0.000144 kPa
324.12 K	0.0001655 kPa
325.11 K	0.0001853 kPa
326.56 K	0.0002146 kPa
327.52 K	0.0002379 kPa and 0.0002346 kPa
328.98 K	0.0002676 kPa
329.96 K	0.0002973 kPa
331.42 K	0.0003403 kPa
332.37 K	0.0003763 kPa and 0.000377 kPa
333.83 K	0.000429 kPa
334.83 K	0.0004701 kPa
336.28 K	0.0005477 kPa
337.23 K	0.0006044 kPa and 0.0005995 kPa
338.69 K	0.0006834 kPa
339.69 K	0.0007518 kPa
341.14 K	0.0008558 kPa
342.09 K	0.0009461 kPa and 0.0009339 kPa
343.55 K	0.00107 kPa
344.55 K	0.001176 kPa
345.01 K	0.001226 kPa
346 K	0.001334 kPa
346.95 K	0.001462 kPa and 0.001463 kPa
348.41 K	0.001655 kPa
349.41 K	0.001817 kPa
349.87 K	0.001888 kPa
350.86 K	0.002055 kPa
351.82 K	0.002257 kPa
353.27 K	0.002528 kPa
354.29 K	0.002774 kPa
354.73 K	0.002884 kPa
355.73 K	0.003112 kPa
356.67 K	0.003414 kPa
358.13 K	0.003814 kPa
359.16 K	0.004171 kPa
359.59 K	0.004332 kPa
359.63 K	0.004286 kPa
360.59 K	0.004673 kPa
361.55 K	0.005107 kPa
363 K	0.00565 kPa
364.02 K	0.006171 kPa
364.45 K	0.006382 kPa
364.49 K	0.006315 kPa
365.45 K	0.006842 kPa
366.41 K	0.00747 kPa
367.87 K	0.008233 kPa
368.87 K	0.008934 kPa
369.32 K	0.009208 kPa
371.29 K	0.01071 kPa
371.74 K	0.01102 kPa
372.64 K	0.01169 kPa
372.73 K	0.01183 kPa
375.03 K	0.0139 kPa
377.49 K	0.0166 kPa
379.9 K	0.01941 kPa
382.34 K	0.02319 kPa
384.76 K	0.02705 kPa
387.21 K	0.03214 kPa
389.66 K	0.03772 kPa
392.06 K	0.04434 kPa
394.52 K	0.05191 kPa
396.92 K	0.06045 kPa
399.39 K	0.07078 kPa
401.78 K	0.08154 kPa
404.23 K	0.09507 kPa
406.65 K	0.1092 kPa
409.09 K	0.1267 kPa
411.5 K	0.1469 kPa
411.52 K	0.1459 kPa
416.35 K	0.1929 kPa
421.21 K	0.2522 kPa
426.08 K	0.3266 kPa
428.52 K	0.37 kPa
430.94 K	0.4193 kPa

CCCCCCCCCCCCCCCCC(=O)OC [methyl heptadecanoate]
Transpiration method
Details	vapor or sublimation pressure [kPa]
337.9 K	0.000259
339.75 K	0.000298
341.8 K	0.000371
342.85 K	0.000395
345.85 K	0.000532
347.95 K	0.000685
350 K	0.000803
354.3 K	0.00114
357.5 K	0.00144
360.6 K	0.00195
362.5 K	0.00206
365.25 K	0.00272
366.85 K	0.00301
369 K	0.00377
372.3 K	0.00464
376.2 K	0.0058
379.2 K	0.00772
382.25 K	0.0089
385.65 K	0.0111
387 K	0.0126
389.25 K	0.0152
391.3 K	0.0176
393.4 K	0.0186
396.2 K	0.0246
399.2 K	0.0302
402.35 K	0.0355
405.3 K	0.044
408.15 K	0.0523
412.2 K	0.0635

CCCCCCCCCCCCC(=O)OC [methyl tridecanoate]
Transpiration method
Details	vapor or sublimation pressure [kPa]
298.15 K	0.000239
300.15 K	0.000302
303.25 K	0.00041
305.15 K	0.000485
308.15 K	0.000697
310.15 K	0.000799
313.35 K	0.00112
315.05 K	0.0013
318.25 K	0.00174
320.15 K	0.00203
323.25 K	0.00258
325.05 K	0.00314
328.15 K	0.00415
330.15 K	0.00492
333.15 K	0.00626
335.15 K	0.00739
338.15 K	0.00934
340.15 K	0.0111
343.05 K	0.0131
345.15 K	0.0163
348.15 K	0.0197
350.15 K	0.023
353.15 K	0.0286
355.15 K	0.0338

CCCCCCCCCCCCCCCCCC(=O)OC [methyl octadecanoate]
Details	vapor or sublimation pressure
323.15 K	1.964e-05 kPa
325.63 K	2.609e-05 kPa
329.6 K	4.071e-05 kPa
330.56 K	4.58e-05 kPa
332.04 K	5.362e-05 kPa
333.07 K	6.007e-05 kPa
334.55 K	6.999e-05 kPa
335.51 K	7.764e-05 kPa
336.99 K	9.04e-05 kPa
338.02 K	0.0001008 kPa
339.5 K	0.0001184 kPa
340.47 K	0.0001287 kPa
340.98 K	0.0001351 kPa
341.1 K	0.0001377 kPa
341.96 K	0.0001499 kPa
342.97 K	0.0001648 kPa
343.46 K	0.0001744 kPa
343.47 K	0.0001739 kPa
343.6 K	0.0001774 kPa
344.44 K	0.0001914 kPa
345.44 K	0.0002122 kPa
345.93 K	0.0002228 kPa and 0.0002233 kPa
348.42 K	0.0002848 kPa
348.57 K	0.0002879 kPa
350.9 K	0.0003613 kPa
355.89 K	0.0005743 kPa
358.52 K	0.0007236 kPa
360.89 K	0.0008965 kPa
363.49 K	0.001127 kPa
363.98 K	0.00118 kPa
365.92 K	0.001386 kPa
366.47 K	0.00146 kPa
368.46 K	0.001721 kPa
368.97 K	0.001804 kPa
370.93 K	0.002113 kPa
371.46 K	0.002216 kPa
373.44 K	0.002588 kPa
373.95 K	0.00271 kPa
373.96 K	0.002713 kPa
375.45 K	0.003046 kPa
375.93 K	0.003163 kPa
376.44 K	0.003286 kPa
377.44 K	0.003573 kPa
380.44 K	0.004514 kPa and 0.0045 kPa
381.43 K	0.004848 kPa
381.44 K	0.004888 kPa and 0.0049 kPa
382.43 K	0.005241 kPa
383.93 K	0.005905 kPa
383.94 K	0.0059 kPa
385.43 K	0.006597 kPa and 0.006574 kPa
386.43 K	0.007091 kPa and 0.007085 kPa
388.93 K	0.00852 kPa
391.41 K	0.01021 kPa
393.92 K	0.0122 kPa
396.39 K	0.01443 kPa
398.9 K	0.01726 kPa
401.38 K	0.0202 kPa
403.89 K	0.02406 kPa
406.38 K	0.0282 kPa
408.88 K	0.03336 kPa

Transpiration method
Details	vapor or sublimation pressure [kPa]
369.05 K	0.00176
371.15 K	0.00202
375.1 K	0.0027
377.05 K	0.00323
380.05 K	0.00389
383.15 K	0.00494
387.15 K	0.00636
390.35 K	0.00731
393.15 K	0.00901
397.5 K	0.013
399.45 K	0.0149
400.35 K	0.0159
401.35 K	0.0166
405.2 K	0.0225
405.6 K	0.0231
408.4 K	0.0279
410.25 K	0.0322
411.15 K	0.0339
412.3 K	0.036
415.2 K	0.0433
416.35 K	0.0424
419.25 K	0.052
420.15 K	0.0563
423.1 K	0.0664
425.15 K	0.0804

Reference: the NIST ThermoML archive (doi:10.1016/j.jct.2019.01.007)
